According to patent US20220000777A1, “LIPOSOMAL ENHANCED INTRA-PERITONEAL CHEMOTHERAPY” (TESORX PHARMA, LLC, priority 2018, published 2022):
Values joined by “and” are separate entries in the source; they are usually repeats but may differ in a detail not shown here. Equal values may be shown once. Where a name gives a salt, the structure may show the parent alone. Read-outs that look alike come from different tables or passages of the source. Blank lines part the entries; values can stand above or below the compound they belong to.

How the values were obtained:
[1] = cited from earlier work
[2] = system: ovarian cancer; settings: intraperitoneal cisplatin regimen, versus 41 months, p=0.02; cited from earlier work
[3] = system: OVCAR3-RFP human ovarian cancer cells; assay: sulforhodamine B (SRB) assay, dosage curves and IC50; assay type: cell-based; settings: 72 h treatment; for IC50: Homo sapiens, 72 h
Method: Example 1. Determination of paclitaxel […] in TSD-001-treated human ovarian cancer cells. A sulforhodamine B (SRB) assay-based approach was employed to determine the inhibitory concentration (IC)50 of paclitaxel against OVCAR3-RFP human ovarian cancer cells (Anticancer Inc.) treated with the TSD-001 paclitaxel liposomal formulation (Paclitaxel:DMPC:DMPG=1:1.43:0.567). For use in the assay, lyophilized TSD-001 was reconstituted in sterile injectable-grade water to a concentration of 6 mg/mL and subsequently serially diluted in RPMI cell culture medium (RPMI-1640 with L-glutamine, Corning). Three separate dosage curve assays were performed. In two of the assays, the serial dilutions of TSD-001 ranged from 0.05 μg/mL to 0.391 ng/mL, and in the third assay, the serial dilutions of TSD-001 ranged from 0.0128 μg/mL to 2.147 ng/mL.
Serial dilutions of the Abraxane® paclitaxel formulation (nanoparticle albuminbound paclitaxel) and doxorubicin HCl were also prepared to perform comparative dosage curve assays in OVCAR3-RFP cells. For these assays, lyophilized Abraxane® was dissolved in RPMI medium to a concentration of 1 mg/mL, and doxorubicin HCl was dissolved in a small amount of DMSO, and the diluted in RPMI medium to a concentration of 1 mg/mL. Three separate dosage curve assays were performed for Abraxane®. In one assay, the serial dilutions of Abraxane® ranged from 0.04 μg/mL to 0.078 ng/mL. In the second assay, the serial dilutions of Abraxane® ranged from 0.04 μg/mL to 8.39 ng/mL and in the third assay, the serial dilutions of Abraxane® ranged from 0.032 μg/mL to 8.39 ng/mL. […]
OVCAR3-RFP cells were seeded onto 96-well clear flat-bottom polystyrene tissue culture plates (Corning) at a density of approximately 5×10^3 cells/well in 200 μl of RPMI. […] Protein-bound SRB was detected by adding 200 μl 10 mM Tris base solution (pH 10.5) to each well, followed by placing the plate(s) on a byratory shaker for 5 minutes to allow the Tris solution to solubilize SRB. The plates were read using a microplate reader at an absorbance of 510 nm. […]

[4] = system: ovarian cancer; settings: cited from earlier work

SMILES: N.N.[Cl][Pt][Cl] [cisplatin, Cis-diamminedichloroplatinum(10)]
peritoneal cavity exposure to greater concentrations than possible with systemic therapy delivery ([1]; in vivo, ip): 10-20 fold
overall survival median [2]: 49 months

IC50 ([3]; Table 1, combined data, read-out: Mean IC50 (μg/mL) against OVCAR3-RFP cells (n ≥ 5)): 0.191 ± 0.0835 µg/mL
IC50 ([3]; single dosage curve assay, n=3 or 4 wells/concentration, read-out: IC50 at 72 h.): 0.17 µg/mL
IC50 at 72 h. ([3]; single dosage curve assay, n=3 or 4 wells/concentration, HCl): 0.1322 µg/mL and 0.166 µg/mL
SMILES: COc1cccc2c1C(=O)c1c(O)c3c(c(O)c1C2=O)C[C@@](O)(C(=O)CO)C[C@@H]3O[C@H]1C[C@H](N)[C@H](O)[C@H](C)O1 [doxorubicin HCl]

SMILES: CC(=O)O[C@H]1C(=O)[C@@]2(C)[C@H]([C@H](OC(=O)c3ccccc3)[C@]3(O)C[C@H](OC(=O)[C@H](O)[C@@H](NC(=O)c4ccccc4)c4ccccc4)C(C)=C1C3(C)C)[C@]1(OC(C)=O)CO[C@@H]1C[C@@H]2O [paclitaxel]
peritoneal cavity exposure to greater concentrations than possible with systemic therapy delivery ([1]; intraperitoneal versus systemic delivery): greater than 1000 fold
surgical complete response ([4]; intraperitoneal 60 mg/m^2 per week for 16 weeks, microscopic residual patients): 61%
complete response ([4]; intraperitoneal 60 mg/m^2 per week for 16 weeks, women with macroscopic residual cancer): one of the 31
dose-limiting toxicity ([4]; intraperitoneal use, Phase 1 study): abdominal pain
